Assay results as given in publication PMC9032987, “Cytotoxic Alkylynols of the Sponge Cribrochalina vasculum: Structure, Synthetic Analogs and SAR Studies” (Marine Drugs, 2022).

Assays:
Type in all cases: cell-based, human
NSCLC U-1810 cells = assay: MTT cytotoxicity assay in NSCLC U-1810 cells; settings: for IC50: MTT, 72 h post addition, estimated from cell viability curve; for viability at 162 µM: U-1810, at 162 µM; for viability at 113 µM: U-1810, at 113 µM
Procedure: (§1) Cytotoxicity structure-activity relationship analyses of compounds in NSCLC tumor cells and fibroblasts. Stock solutions (10 mg/mL) of the compounds to be tested were made in DMSO and further diluted with cell culture media prior to structure-activity relationship (SAR) screening as earlier described. To assess anti-tumor activity, the large cell lung carcinoma cell line NSCLC U-1810 (kind gift from Uppsala University) and diploid lung fibroblasts WI-38 [30] were used. U-1810 cells were propagated in RPMI-1640 medium (Sigma-Aldrich, St. Louis, […], USA) supplemented with FBS (10% HyClone) and L-glutamine (2 mmol/L, Invitrogen) while WI-38 fibroblasts were cultured in Eagle’s Minimum Essential Medium (Sigma-Aldrich) with 15% FBS and L-glutamine. For SAR assessment the cytotoxic assay 3-(4,5-dimethylthiazol-2-yl)-2,5 diphenyltetrazolium bromide (MTT) was applied. Profiling of U-1810 cells was carried out at 80% confluency (obtained by seeding 5000 cells/well in a 96-well plate for 24 h prior to treatment) and of WI-38 at 100% confluency (obtained by seeding 18,000 cells/well in a 96-well plate for 24 h prior to compound addition), the later to mimic the behavior of fibroblasts in the human body where they are non-dividing. For SAR evaluation, different concentrations of the compounds were added to fresh media while untreated cells were treated with DMSO corresponding to the amount applied when testing the highest concentration of the different compounds. The cytotoxicity of the compounds was assessed at 72 h post addition to cells by adding MTT solution (0.5 mg/mL, Sigma-Aldrich, 4 h at 37 °C) and dissolving the resulting formazan crystals in an SDS-containing solution (10% SDS and 0.01 mol/L HCl). Absorbance was quantified at 595 nm and the compound-induced cytotoxicity was calculated relative to that observed in DMSO-treated cells. The IC50 values were deduced from survival plots drawn in Graph Pad PRISM software vers.6 and for some of the compounds extrapolated as indicated in footnotes to Table 1.

[1] = system: WI-38 diploid lung fibroblasts; assay: MTT cytotoxicity assay in diploid lung fibroblasts WI-38; settings: for IC50: MTT, 72 h post addition, confluent cells, estimated from cell viability curve
Procedure: as §1

[2] = as above; settings: human, WI-38 diploid lung fibroblasts, 72 h, read-out: cell viability; for viability at 72 h, 188 µM: WI-38, at 188 µM; for viability at 72 h, 113 µM: WI-38, at 113 µM
Procedure: as §1

[3] = calculated at IC50 (WI-38 IC50 / U-1810 IC50)
[4] = calculated at IC50 of U-1810 and the highest dose applied in WI-38 (IC50 not reached)
[5] = Homo sapiens, 72 h, read-out: cell viability

Row | SMILES | IC50 (NSCLC U-1810 cells; Homo sapiens, U-1810, 72 h) [µM] | Selectivity NSCLC cells (U-1810) vs. diploid fibroblasts (WI-38) (NSCLC U-1810 cells; [3]) | IC50 ([1]; Homo sapiens, WI-38, 72 h) [µM] | cytotoxic activity in NSCLC U-1810 cells (in words) (NSCLC U-1810 cells) | also measured
1 | C#CC(O)/C=C/CCCCCCCCCCCCCCC (racemic) [rac-18, rac-Icos-(4E)-en-1-yn-3-ol] | 1.2 | 6.9 | 8.3 |  | 
2 | C#CC(O)/C=C/C=C/CCCCCCCCCCCCCCC (racemic) [rac-27, (4E,6E)-docosa-4,6-dien-1-yn-3-ol] | ~2.4 |  | 70 |  | cytotoxicity to WI-38 fibroblasts (in words) [1]: did not affect the viability
3 | C#CC(O)CCCCCCCCC (racemic) [rac-31, Dodec-1-yn-3-ol] | 15 |  |  | much lower toxicity | 
4 | C#CC(O)CCCCCCCCCCCCCCC (racemic) [rac-32, Octadec-1-yn-3-ol] | 3 | 25 | 75 |  | 
5 | C#CC(O)CCCCCCCCCCCCCCCCC (racemic) [rac-33, Icos-1-yn-3-ol] | 2.8 |  | > 170 |  | viability at 72 h, 170 µM ([2]; WI-38, at 170 µM): ~100%
6 | C#CC(CCCCCCCCCCCCCCC)OS(=O)(=O)c1ccc(C)cc1 (racemic) [rac-35, Octadec-1-yn-3-yl 4-methylbenzenesulfonate] | 23 |  | > 119 |  | Selectivity NSCLC cells (U-1810) vs. diploid fibroblasts (WI-38) (NSCLC U-1810 cells; [4]): >5.2 ^s; viability at 72 h, 119 µM ([2]; WI-38, at 119 µM): ~85%
7 | C#CC(Cl)CCCCCCCCCCCCCCC (racemic) [rac-36, 3-chlorooctadec-1-yne] | 140 |  | > 175 |  | tumor selective cytotoxicity NSCLC vs WI-38 (in words) (NSCLC U-1810 cells): did not display any specific cytotoxicity; Selectivity NSCLC cells (U-1810) vs. diploid fibroblasts (WI-38) (NSCLC U-1810 cells; [4]): >1.3 ^u; viability at 72 h, 175 µM ([2]; WI-38, at 175 µM): ~75%
8 | C#CC(N)CCCCCCCCCCCCCCC (racemic) [rac-37, Octadec-1-yn-3-amine] | 29 | 1.2 | 34 |  | 
9 | C#CC(CCCCCCCCCCCCCCC)OC (racemic) [rac-38, 3-Methoxyoctadec-1-yne] | > 179 |  | > 179 |  | tumor selective cytotoxicity NSCLC vs WI-38 (in words) (NSCLC U-1810 cells): did not display any specific cytotoxicity; viability at 179 µM (NSCLC U-1810 cells; Homo sapiens, U-1810, at 179 µM, 72 h, read-out: cell viability): ~71%; viability at 72 h, 179 µM ([2]; WI-38, at 179 µM): ~77%
10 | C#CC(CCCCCCCCCCCCCCC)SC(C)=O (racemic) [rac-39, S-Octadec-1-yn-3-yl ethanethioate] | 60 |  | > 154 |  | tumor selective cytotoxicity NSCLC vs WI-38 (in words) (NSCLC U-1810 cells): did not display any specific cytotoxicity; viability at 72 h, 154 µM ([2]; WI-38, at 154 µM): ~85%
11 | C#CC(S)CCCCCCCCCCCCCCC (racemic) [rac-40, Octadec-1-yne-3-thiol] | > 177 |  | > 177 |  | tumor selective cytotoxicity NSCLC vs WI-38 (in words) (NSCLC U-1810 cells): did not display any specific cytotoxicity; viability at 177 µM (NSCLC U-1810 cells; Homo sapiens, U-1810, at 177 µM, 72 h, read-out: cell viability): ~100%; viability at 72 h, 177 µM ([2]; WI-38, at 177 µM): ~100%
12 | C#CC(C)(O)CCCCCCCCCCCCCCCC (racemic) [rac-41, 3-Methylnonadec-1-yn-3-ol] | > 162 |  |  |  | viability at 162 µM (NSCLC U-1810 cells; [5]): ~54%
13 | CC#CC(O)CCCCCCCCCCCCCCCCC (racemic) [rac-42, Henicos-2-yn-4-ol] | > 162 |  |  |  | viability at 162 µM (NSCLC U-1810 cells; [5]): ~90%
14 | C#CC(O)c1cccc(CCCCCCCCCCCCCC)c1 (racemic) [rac-45, 1-(3-tetradecylphenyl)prop-2-yn-1-ol] | ~152 |  |  |  | viability at 76 µM (NSCLC U-1810 cells; Homo sapiens, U-1810, at 76 µM, one experiment, read-out: cell viability): ~70%
15 | C#CC(O)c1ccccc1CCCCCCCCCCCCCC (racemic) [rac-48, 1-(2-tetradecylphenyl)prop-2-yn-1-ol] | ~50 |  |  |  | 
16 | C#CC(O)c1ccccc1 (racemic) [rac-49, 1-Phenylprop-2-yn-1-ol] | > 379 |  |  | did not display any anti-tumor effect | viability at 379 µM (NSCLC U-1810 cells; Homo sapiens, U-1810, at 379 µM, 72 h, read-out: cell viability): ~80%

Row | SMILES | IC50 (NSCLC U-1810 cells; Homo sapiens, U-1810, 72 h) [µM] | Selectivity NSCLC cells (U-1810) vs. diploid fibroblasts (WI-38) (NSCLC U-1810 cells; [3]) | IC50 ([1]; Homo sapiens, WI-38, 72 h) [µM] | cytotoxic activity in NSCLC U-1810 cells (in words) (NSCLC U-1810 cells) | also measured
17 | C#C[C@H](O)/C=C/CCCCCCCCCCCCC(C)C [Compound 1, (3R)-18-Methylnonadec-(4E)-en-1-yn-3-ol] | 1 | 12 | 12 | equally active | tumor selective cytotoxicity NSCLC vs WI-38 (in words) (NSCLC U-1810 cells): selectivity at lower doses
18 | C#CC(=O)/C=C/CCCCCCCCC(C)CCCCCC (centres unmarked) [Compound 6, 14-Methylicos-(4E)-en-1-yn-3-one] | 65 | 1.1 | 73 | not active | 
19 | C#C[C@H](O)CCCCCCCCCCC(C)CCCCCC (stereo partly drawn) [Compound 7, (3R)-14-Methylicos-1-yn-3-ol] | 3 |  | > 163 | equally active | tumor selective cytotoxicity NSCLC vs WI-38 (in words) (NSCLC U-1810 cells): clear tumor selective activity
20 | C#CC(O)C=CCCCCCCCC1CC1CCCCCC (centres unmarked) [Compound 8] | 1 | 10 | 10 | equally active | tumor selective cytotoxicity NSCLC vs WI-38 (in words) (NSCLC U-1810 cells): selectivity at lower doses
21 | C#CC(=O)/C=C/CCCCCCCCC/C=C\CCCCCC [Compound 10, Docos-(4E,15Z)-dien-1-yn-3-one] | ~80 | ~0.4 | 30 | not active | 
22 | C#C[C@H](O)/C=C/CCCCCCCCCCCCCC(C)C [Compound 19, (3R)-19-Methylicos-(4E)-en-1-yn-3-ol] | 2 | 6.5 | 13 | equally active | 
23 | C#C[C@H](O)/C=C/CCCCCCCCCCCCCCCC [Compound 20, (3R)-Henicos-(4E)-en-1-yn-3-ol] | 1.4 | 10 | 14 | equally active | 
24 | C#C[C@H](O)/C=C/CCCCCCCCC/C=C\CCCCC(C)C [Compound 22, (3R)-21-Methyldocos-(4E,15Z)-dien-1-yn-3-ol] | 1.2 | 10.8 | 13 | equally active | 
25 | C#C[C@H](O)/C=C/CCCCCCCCCCCCCCC [Compound R-18, (R,E)-icos-4-en-1-yn-3-ol] |  | 3.8 |  |  | IC50 (NSCLC U-1810 cells): 0.9 µM; IC50 [1]: 3.4 µM
26 | C#C[C@H](O)CCCCCCCCCCCCCCC [Compound R-32, (R)-octadec-1-yn-3-ol] | 1.4 |  | > 188 |  | viability at 72 h, 188 µM [2]: ~60%
27 | C#C[C@@H](O)CCCCCCCCCCCCCCC [Compound S-32, (S)-octadec-1-yn-3-ol] | 140 |  | > 188 |  | viability at 72 h, 188 µM [2]: ~80%
28 | C#C[C@@H](CCCCCCCCCCCCCCC)OC(=O)[C@](OC)(c1ccccc1)C(F)(F)F [R,R-34, (R)-((R)-octadec-1-yn-3-yl)-3,3,3-trifluoro-2-methoxy-2-phenylpropanoate] | > 113 |  | > 113 |  | viability at 113 µM (NSCLC U-1810 cells; [5]): ~100%; viability at 72 h, 113 µM [2]: ~100%
29 | C#C[C@H](CCCCCCCCCCCCCCC)OC(=O)[C@](OC)(c1ccccc1)C(F)(F)F [S,R-34, (R)-((S)-octadec-1-yn-3-yl)-3,3,3-trifluoro-2-methoxy-2-phenylpropanoate] | > 113 |  | > 113 |  | viability at 113 µM (NSCLC U-1810 cells; [5]): ~96%; viability at 72 h, 113 µM [2]: ~100%
30 | C#C[C@H](O)/C=C/CCCCCCCCCCCCCCC [scal-R-18, (R,E)-icos-4-en-1-yn-3-ol] | 1 | 6.8 | 6.8 |  | 
31 | C#C[C@@H](O)/C=C/CCCCCCCCCCCCCCC [scal-S-18, (S)-icos-(4E)-en-1-yn-3-ol] | 1 | 8.5 | 8.5 |  | 
